Activity calls are given as the source filed them. The calls are words filed in the database; no cut-off is given here.
Legend:
[1] = tested on: Human immunodeficiency virus 1; experiment: Antiviral activity against HIV1 RES056 expressing reverse transcriptase K103N/Y181C double mutant infected in human MT4 cells assessed as reduction in virus-induced cytopathogenicity by MTT assay; assay type: functional, organism-based; settings: Human immunodeficiency virus 1, RES056, MT4
[2] = tested on: Human immunodeficiency virus 2; experiment: Antiviral activity against HIV2 ROD infected in human MT4 cells assessed as reduction in virus-induced cytopathogenicity by MTT assay; assay type: functional, organism-based; settings: ISOLATE ROD
[3] = Cytotoxicity against human MT4 cells by MTT assay; assay type: cell-based
[4] = Selectivity index, ratio of CC50 for human MT4 cells to EC50 for HIV1 3B infected in human MT4 cells; assay type: toxicity, cell-based; settings: read-out: Ratio CC50/EC50
[5] = tested on: Human immunodeficiency virus 1; experiment: Antiviral activity against HIV1 3B infected in human MT4 cells assessed as reduction in virus-induced cytopathogenicity by MTT assay; assay type: functional, organism-based; settings: Human immunodeficiency virus 1, 3B
[6] = Selectivity index, ratio of CC50 for human MT4 cells to EC50 for HIV1 RES056 expressing reverse transcriptase K103N/Y181C double mutant infected in human MT4 cells; assay type: toxicity, cell-based; settings: read-out: Ratio CC50/EC50
[7] = molecular target: Human immunodeficiency virus type 1 reverse transcriptase (Human immunodeficiency virus 1, UniProt Q72547); experiment: Inhibition of HIV1 reverse transcriptase assessed as inhibition of biotin-dUTP incorporation using hybrid poly (A).oligo (dT)15 template primer incubated for 1 hr at 37 degC by ELISA method

Row | Structure (SMILES) | EC50 [1] [µM] | inhibition [2] | CC50 [3] [µM] | selectivity ratio [4] | EC50 [5] [nM] | selectivity ratio [6] | IC50 [7] [nM]
1 | COC(=O)c1ccc(NC(=O)CSc2ncncc2-c2cccc3ccccc23)c([N+](=O)[O-])c1 | > 196 | inactive | ≥ 196 | ≥ 55 | 3580 | 1 | –
2 | Brc1ccccc1Cn1cc(CSc2ncncc2-c2cccc3ccccc23)nn1 | > 39.4 | inactive | 39.4 | < 1 | > 39400 | < 1 | –
3 | Cc1ccnc2c1NC(=O)c1cccnc1N2C1CC1 [NEVIRAPINE] | > 14.4 | – | > 14.4 | – | – | – | –
4 | O=C(O)c1ccc(-n2cc(CSc3ncncc3-c3cccc4ccccc34)nn2)cc1 | > 95.9 | inactive | 95.9 | < 1 | > 95900 | < 1 | –
5 | COc1ccc(Cn2cc(CSc3ncncc3-c3cccc4ccccc34)nn2)cc1 | > 31.2 | inactive | 31.2 | < 1 | > 31100 | < 1 | –
6 | CC(C)Nc1cccnc1N1CCN(C(=O)c2cc3cc(NS(C)(=O)=O)ccc3[nH]2)CC1 [DELAVIRDINE] | > 43.8 | – | > 43.8 | > 89 | 490 | 1 | –
7 | O=C(CSc1nnccc1-c1cccc2ccccc12)Nc1ccccc1[N+](=O)[O-] | – | – | – | 2150 | – | – | –
8 | CCOC(=O)c1ccc(NC(=O)CSc2ncncc2-c2cccc3ccccc23)c(Cl)c1 | > 195 | inactive | 195 | 43 | 4550 | < 1 | –
9 | COC(=O)c1ccc(NC(=O)CSc2ncncc2-c2cccc3ccccc23)c(Br)c1 | > 168 | inactive | 168 | 69 | 2420 | < 1 | –
10 | COC(=O)c1ccc(NC(=O)CSc2ncncc2-c2cccc3ccccc23)c(Cl)c1 | > 154 | inactive | 154 | 54 | 2840 | < 1 | –
11 | CCOC(=O)C(C)NC(=O)c1ccc(NC(=O)CSc2ncncc2-c2cccc3ccccc23)c(Cl)c1 (configuration not stated) | > 35.6 | inactive | 35.6 | 13 | 2760 | < 1 | –
12 | NS(=O)(=O)c1ccc(NC(=O)CSc2nncnc2-c2cccc3ccccc23)c(Br)c1 | – | – | – | 1290 | – | – | –
13 | O=C(CSc1ncncc1-c1cccc2ccccc12)Nc1ccc(C(=O)O)nc1Cl | > 127 | inactive | 127 | 5 | 24200 | < 1 | –
14 | O=C(CSc1ncncc1-c1cccc2ccccc12)Nc1ccc(C(=O)O)cc1Cl | > 108 | inactive | 108 | 13 | 8130 | < 1 | –
15 | O=C(CSc1ncncc1-c1cccc2ccccc12)Nc1ccc(C(=O)NO)cc1Cl | > 4.8 | inactive | 4.8 | 8 | 630 | < 1 | –
16 | NS(=O)(=O)c1ccc(NC(=O)CSc2ncncc2-c2cccc3ccccc23)c(Br)c1 | 3.9 | inactive | 24.1 | 132 | 180 | 6 | –
17 | CCOC(=O)c1ccc(NC(=O)CSc2ncncc2-c2cccc3ccccc23)c(Br)c1 | > 211 | inactive | 211 | 47 | 4460 | < 1 | –
18 | O=C(CSc1ncncc1-c1cccc2ccccc12)Nc1ccccc1[N+](=O)[O-] | > 22.5 | inactive | 22.5 | 25 | 910 | < 1 | –
19 | O=C(CSc1nccnc1-c1ccccc1Cl)Nc1ccccc1[N+](=O)[O-] | – | – | – | 23 | – | – | –
20 | O=C1Nc2ccc(Cl)cc2[C@@](C#CC2CC2)(C(F)(F)F)O1 [EFAVIRENZ] | 0.23 | – | > 6.3 | > 1180 | 5.3 | > 27 | –
21 | CONC(=O)c1ccc(NC(=O)CSc2ncncc2-c2cccc3ccccc23)c(Cl)c1 | > 131 | inactive | 131 | 175 | 750 | < 1 | –
22 | CCOC(=O)CNC(=O)c1ccc(NC(=O)CSc2ncncc2-c2cccc3ccccc23)c(Cl)c1 | 30.6 | inactive | 105 | 684 | 150 | 3 | 1310

— ChEMBL document CHEMBL3352799, “Arylazolyl(azinyl)thioacetanilides. Part 16: Structure-based bioisosterism design, synthesis and biological evaluation of novel pyrimidinylthioacetanilides as potent HIV-1 inhibitors” (Bioorg Med Chem, 2014)
